Data taken from paper PMC5011342, “A high throughput drug screening assay to identify compounds that promote oligodendrocyte differentiation using acutely dissociated and purified oligodendrocyte precursor cells” (BMC Research Notes, 2016).
pEC50: −log10 of the molar value. “Also recorded” adds a separate entry of the source. Like-named read-outs stand apart in the source and are kept apart here.

How the values were obtained:
[1] = test system: expanded OPCs; assay: cells; details: for viability at 0.1 µM / viability at 1 µM / viability at 10 µM: Rattus norvegicus, 72 h
Experimental: Having established a consistent assay for measuring OL differentiation in vitro, the next step was to utilize this assay to assess the ability of a wide array of compounds to promote OL differentiation. Prior to library screening, we first established the maximum non-toxic dose of each compound in the library. […] Therefore, we added each compound in the NIH clinical collection (NCC) library to OPCs at 10, 1, and 0.1 µM concentrations. Three days later, we assessed viability of the treated cells by measuring AlamarBlue fluorescence, a measure of cell viability (see “Methods” section). […] Appropriately, we established three sets of screening concentrations for library compounds: non-toxic compounds were tested at 10 and 2 µM, slightly toxic compounds (only toxic at 10 µM) were tested at 2 and 0.4 µM, and very toxic compounds were tested at 0.4 and 0.08 µM.
OPCs were expanded in vitro by seeding into PDL-coated tissue culture flasks at 1000–2000 cells/cm^2 in differentiation media supplemented with 10 ng/ml PDGF-AA. Proliferating OPCs were fed every 2–3 days and supplemented with 2–3× concentration of PDGF as needed to prevent OPC differentiation. After 6–7 days of proliferation, OPCs were harvested by trypsinization, plated into PDL-coated 96-well Falcon plates and centrifuged at 200×g to facilitate cell attachment, survival, and even distribution of cells. Expanded OPCs were seeded in differentiation media at 10,000 cells/well and incubated for 2 h at 37 °C, 10 % CO2 prior to addition of compounds. The NCC library was diluted and added to cells at 10, 1, and 0.1 µM; each concentration was tested in quadruplicate. As a positive control for the induction of toxicity, 5 ng/ml tunicamycin was added to 8 wells in each plate. Three days later, a 1:10 dilution of alamarBlue® (AB) was added to each well and cells were incubated 4 h at 37 °C, 10 % CO2. AB fluorescence was measured using a PerkinElmer Victor II fluorescence microplate reader (PerkinElmer, Waltham, MA) with 560 nm excitation/590 nm emission filters. For library screening, the highest concentration of each compound was adjusted to a minimally toxic concentration based on this toxicity data. Compounds were additionally tested at a second concentration that was 1/5th of the top concentration. The final concentration of DMSO in each well was 0.1 %.

[2] = test system: acutely dissociated and purified rat OPCs; assay: Acute OL differentiation assay (MBP expression/cell, immunofluorescent image quantification); type: cell-based; details: for hit in OL differentiation assay, MRF-TMC: ● = confirmed hit in this paper's assay; for pEC50: average EC50 for induction of OL differentiation from independent biological replicates, eight concentrations
Experimental: In order to identify compounds with the potential to promote OL differentiation in vivo and thereby enhance remyelination, we first wanted to establish an in vitro assay system that would closely mimic conditions in vivo. To do this, we started by using OPCs acutely isolated from postnatal day 6–7 (P6–7) rat brains by O4 immunopanning. […] OPCs were plated directly onto a biological substrate (PDL/laminin) in 96-well view plates at moderate density to allow for sufficient room to expand processes during differentiation. We plated cells in serum-free medium lacking OPC mitogens (no PDGF or FGF) to allow a basal level of OL differentiation to commence, and as a positive control added thyroid hormone (T3, 40 ng/ml) to accelerate differentiation (Fig. 1, flow scheme).
Fig. 1 Flow scheme of the acute OL differentiation assay. a Purified oligodendrocyte precursor cells (OPCs) were cultured from P7 rat cortex and plated into PDL/laminin pre-coated 96-well plates. b One hour later test compounds were added. c OPC cultures with compound were maintained in culture for an additional 4 days. d On the 5th day with compound, cells were fixed and immunostained with anti-MBP antibodies and DAPI. e Images were acquired with automated fluorescence microscopy and scored phenotypically for OL differentiation (see “Methods” section)
To quantify the extent of OL differentiation occurring in treatment conditions, we measured the overall amount of MBP expression/cell (see “Methods” section). Figure 2a depicts the mask created over MBP staining under which the MBP expression was quantified. […]
All animal work was carried out in strict accordance with the recommendations in the Guide for the Care and Use of Laboratory Animals of the National Institutes of Health. The protocol was approved by the Institutional Use and Care and Use Committee at the Molecular Medicine Research Institute (Sunnyvale, CA). Animals used for OPC isolation in these studies were euthanized by decapitation. OPCs from brains of P6-P7 Sprague–Dawley rat pups (Charles River, Wilmington, MA, USA) were enriched by immunopanning as previously described (Dugas et al. 2006). Briefly, single cell suspensions were obtained from papain-digested neonatal brains and depleted of mature glial cells by successive panning with RAN-2- and GalC-coated plates, followed by enrichment for OPCs using O4-coated plates. OPCs were plated in differentiation media (DMEM, 100 U/ml Penicillin/100 µg/ml streptomycin, 2 mM L-glutamine, 1 mM Na pyruvate, 5 µg/ml insulin, 5 µg/ml N-acetyl-L-cysteine, 1× trace elements B,10 ng/ml d-Biotin, 100 µg/ml BSA, 100 µg/ml apo-transferrin, 16 µg/ml putrescine, 60 ng/ml progesterone, 40 ng/ml sodium selenite 5 ng/ml forskolin, 10 ng/ml CNTF, 1 ng/ml NT-3).
Acutely enriched OPCs were plated in differentiation media at 5000 cells/well into PDL/laminin coated 96-well view plates and centrifuged at 200×g to facilitate cell attachment, survival, and even distribution of OPCs. OPCs were pre-incubated for 1–2 h at 37 °C in 10 % CO2, followed by the addition of test compounds in quadruplicate. Controls were added in eight replicate wells, negative control = 0.1 % DMSO; positive control = 40 ng/ml T3. The day of OPC plating was considered DIV0. On DIV4, cells were fixed, immunostained for myelin basic protein (MBP) expression, imaged and quantified as described below.

[3] = alamarBlue viability of expanded OPCs, compound at 0.1 µM, sheet All Tox data
[4] = alamarBlue viability of expanded OPCs, compound at 1 µM, sheet All Tox data
[5] = alamarBlue viability of expanded OPCs, compound at 10 µM, sheet All Tox data
[6] = 2 uM test compound, relative to quetiapine, sheet "All OLga data"
[7] = 10 uM test compound, relative to quetiapine, sheet "All OLga data"
[8] = read-out: 0.1 µM (% DMSO), alamarBlue viability of expanded OPCs, compound at 0.1 µM, sheet All Tox data
[9] = read-out: 1 µM (% DMSO), alamarBlue viability of expanded OPCs, compound at 1 µM, sheet All Tox data
[10] = read-out: 10 µM (% DMSO), alamarBlue viability of expanded OPCs, compound at 10 µM, sheet All Tox data
[11] = Rattus norvegicus, 2 uM test compound, relative to quetiapine, sheet "All OLga data", read-out: OL differentiation, 2 uM (% Quet)
[12] = Rattus norvegicus, 10 uM test compound, relative to quetiapine, sheet "All OLga data", read-out: OL differentiation, 10 uM (% Quet)
[13] = read-out: 0.1 µM (% DMSO), alamarBlue viability, NCC library compound at 0.1 µM, sheet "All Tox data"
[14] = read-out: 1 µM (% DMSO), alamarBlue viability, NCC library compound at 1 µM, sheet "All Tox data"
[15] = read-out: 10 µM (% DMSO), alamarBlue viability, NCC library compound at 10 µM, sheet "All Tox data"
[16] = Rattus norvegicus, test compound at 2 uM, NCC library screen, sheet "All OLga data", relative to quetiapine, read-out: 2 uM (% Quet)
[17] = Rattus norvegicus, test compound at 10 uM, NCC library screen, sheet "All OLga data", relative to quetiapine, read-out: 10 uM (% Quet)

Cl.FC(F)(F)c1cccc(N2CCNCC2)c1
0.1 µM (% DMSO) [1, 3]: 91.5 % DMSO | 1 µM (% DMSO) [1, 4]: 101.9 % DMSO | 10 µM (% DMSO) [1, 5]: 76.4 % DMSO | OL differentiation, 2 uM (% Quet) [2, 6]: 23.8 % Quet | OL differentiation, 10 uM (% Quet) [2, 7]: 20.8 % Quet

CC=CC(=O)N(CC)c1ccccc1C (mixture of isomers) [Crotamiton]
viability at 0.1 µM [1, 8]: 92.3% | viability at 1 µM [1, 9]: 106% | viability at 10 µM [1, 10]: 97.8% | activation at 2 µM [2, 11]: 1.7% | activation at 10 µM [2, 12]: 1.9%

Oc1cc2c(cc1O)[C@H]1c3ccccc3CN[C@@H]1CC2 (racemic) [Dihydrexidine]
viability at 0.1 µM [1, 13]: 81.4% | viability at 1 µM [1, 14]: 37.9% | viability at 10 µM [1, 15]: 9.8% | activation at 0.08 µM ([2]; Rattus norvegicus, test compound at 0.08 uM, NCC library screen, sheet "All OLga data", relative to quetiapine, read-out: 0.08 uM (% Quet)): -13.3% | activation at 0.4 µM ([2]; Rattus norvegicus, test compound at 0.4 uM, NCC library screen, sheet "All OLga data", relative to quetiapine, read-out: 0.4 uM (% Quet)): -27.6%

c1ccc(Cn2ccnc2)cc1 [1-Benzylimidazole]
viability at 0.1 µM [1, 13]: 85.4% | viability at 1 µM [1, 14]: 91.8% | viability at 10 µM [1, 15]: 94.3% | activation at 2 µM [2, 16]: 0.1% | activation at 10 µM [2, 17]: 10.7%

O=c1[nH]cnc2c1ncn2[C@H]1CC[C@@H](CO)O1 [2',3'-Dideoxyinosine]
viability at 0.1 µM [1, 8]: 88.6% | viability at 1 µM [1, 9]: 88.2% | viability at 10 µM [1, 10]: 86.2% | activation at 2 µM [2, 11]: 10% | activation at 10 µM [2, 12]: -0.07%

NCCc1ccccn1 [2-(2-aminoethyl)pyridine]
viability at 0.1 µM [1, 13]: 97.5% | viability at 1 µM [1, 14]: 81.9% | viability at 10 µM [1, 15]: 73.2% | activation at 2 µM [2, 16]: 20.5% | activation at 10 µM [2, 17]: 16.9%

Nc1nc(Cl)nc2c1ncn2[C@@H]1O[C@H](CO)[C@@H](O)[C@H]1O [2-Chloroadenosine]
0.1 µM (% DMSO) ([1]; alamarBlue viability, NCC library compound at 0.1 µM, sheet "All Tox data"): 113.1 % DMSO | 1 µM (% DMSO) ([1]; alamarBlue viability, NCC library compound at 1 µM, sheet "All Tox data"): 99.2 % DMSO | 10 µM (% DMSO) ([1]; alamarBlue viability, NCC library compound at 10 µM, sheet "All Tox data"): 99.5 % DMSO | OL differentiation, 2 uM (% Quet) [2, 6]: 8.0 % Quet | OL differentiation, 10 uM (% Quet) [2, 7]: 32.5 % Quet

O=C1NC(C(=O)O)CS1 (stereo not shown) [2-oxothiazolidine-4-carboxylic acid]
0.1 µM (% DMSO) [1, 3]: 78.9 % DMSO | 1 µM (% DMSO) [1, 4]: 89.6 % DMSO | 10 µM (% DMSO) [1, 5]: 83.7 % DMSO | OL differentiation, 2 uM (% Quet) [2, 6]: -5.5 % Quet | OL differentiation, 10 uM (% Quet) [2, 7]: 20.5 % Quet

Cc1c(C(=O)NN2CCCCC2)nn(-c2ccc(Cl)cc2Cl)c1-c1ccc(I)cc1 [AM 251]
0.4 uM (% Quet) [2]: -5.0 % Quet | 2 uM (% Quet) [2]: -199.0 % Quet

COc1cc2c(cc1OC)C(=O)C(CC1CCN(Cc3ccccc3)CC1)C2 (stereo not shown) [Donepezil, reference compound]
activation at 2 µM [2, 11]: 94.8% | activation at 10 µM [2, 12]: 75.6% | hit in OL differentiation assay, MRF-TMC [2]: ●

CN(C)CCC[C@@]1(c2ccc(F)cc2)OCc2cc(C#N)ccc21 [Escitalopram, reference compound]
pEC50 ([2]; Rattus norvegicus): 5.89 | hit in OL differentiation assay, MRF-TMC [2]: ●

COc1ccc(CC(C)NCC(O)c2ccc(O)c(NC=O)c2)cc1 (stereo not shown) [Formoterol]
activation at 2 µM ([2]; Rattus norvegicus, read-out: 2 uM (% Quet)): 4.6% | activation at 10 µM ([2]; Rattus norvegicus, read-out: 10 uM (% Quet)): 12.1%

CC1CCN(CCCC(=O)c2ccc(F)cc2)CC1 [Metylperon, reference compound]
pEC50 ([2]; Rattus norvegicus): 5.14 | hit in OL differentiation assay, MRF-TMC [2]: ●

COc1c(N2C[C@@H]3CCCN[C@@H]3C2)c(F)cc2c(=O)c(C(=O)O)cn(C3CC3)c12 [Moxifloxacin]
activation at 2 µM [2, 11]: 20.2% | activation at 10 µM [2, 12]: 16.3%

COC(=O)C1=C(C)NC(C)=C(C(=O)OC)C1c1ccccc1[N+](=O)[O-] [Nifedipine]
activation at 0.4 µM ([2]; Rattus norvegicus, 0.4 uM test compound, relative to quetiapine, sheet "All OLga data", read-out: OL differentiation, 0.4 uM (% Quet)): 19.7% | activation at 2 µM [2, 11]: -8.9%

Nc1nc2ccc(OC(F)(F)F)cc2s1 [Riluzole]
activation at 2 µM [2, 11]: -11.1% | activation at 10 µM [2, 12]: 32.6%

N[C@@H](Cc1cc(I)c(Oc2ccc(O)c(I)c2)c(I)c1)C(=O)O [T3, triiodothyronine, reference compound]
promotion of OL differentiation (in words) ([2]; MBP expression versus 0.1 % DMSO negative control): able to promote OL differentiation at one or both concentrations tested; also recorded: consistently and significantly promote OL differentiation
